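These data come from cells grown in 96-well plates and exposed to compound for 48 hours at five concentrations. TGI marks complete inhibition of growth.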

Among the test systems are 786-0 renal; ACHN renal; BT-549 breast; EKVX NSCLC; HCT-116 colon; HOP-62 NSCLC; HS 578T breast; K-562 leukemia; MALME-3M melanoma; MDA-MB-231 breast; NCI/ADR-RES ovarian; PC-3 prostate; SF-539 CNS; SK-MEL-5 melanoma; SR leukemia; SW-620 colon; TK-10 renal; UACC-257 melanoma; UACC-62 melanoma.
What all share (experiment): inhibition of tumour cell growth, NCI panel, 48 h

Regarding `CC(Oc1ccccc1)C(=O)NN` (centres undefined), the TGI with 786-0 renal, with ACHN renal, in the assay with BT-549 breast, in the assay with EKVX NSCLC, in the assay with HCT-116 colon and in the assay with HOP-62 NSCLC was above 100 µM in each case. The TGI in the assay with HS 578T breast, in the assay with K-562 leukemia, in the assay on MALME-3M melanoma, in the assay with MDA-MB-231 breast, in the assay with NCI/ADR-RES ovarian and in the assay with PC-3 prostate was above 100 µM in each case. Moreover, the TGI in the assay with SF-539 CNS, with SK-MEL-5 melanoma, with SR leukemia, with SW-620 colon, in the assay with TK-10 renal and with UACC-257 melanoma was above 100 µM each time. In the assay with UACC-62 melanoma, this molecule had a TGI above 100 µM.
Consider `CC1=Nc2nc3ccccc3n2C(C)(C)C1`, for which the TGI with 786-0 renal, in the assay with ACHN renal, with BT-549 breast, in the assay on EKVX NSCLC, in the assay with HCT-116 colon and in the assay with HOP-62 NSCLC was above 100 µM each time. Besides, the TGI in the assay with HS 578T breast, with K-562 leukemia, in the assay with MALME-3M melanoma, with MDA-MB-231 breast, in the assay on NCI/ADR-RES ovarian and in the assay with PC-3 prostate was above 100 µM in each case. The TGI in the assay with SF-539 CNS, with SK-MEL-5 melanoma, with SR leukemia, in the assay with SW-620 colon, in the assay on TK-10 renal and in the assay with UACC-257 melanoma was above 100 µM each time. The TGI with UACC-62 melanoma was above 100 µM.
Take `COC(=O)C1=C(C(=O)OC)SC(=C2c3ccsc3-c3sccc32)S1`: the TGI in the assay on 786-0 renal is 56.8 µM; in the assay on ACHN renal, above 100 µM; in the assay with BT-549 breast it was above 100 µM; in the assay with EKVX NSCLC it was above 100 µM; with HCT-116 colon it was above 100 µM; in the assay with HOP-62 NSCLC, 55.1 µM. The TGI is 52 µM with HS 578T breast; above 100 µM with K-562 leukemia; above 100 µM in the assay with MALME-3M melanoma; above 100 µM in the assay on MDA-MB-231 breast; above 100 µM in the assay on NCI/ADR-RES ovarian; above 100 µM in the assay on PC-3 prostate. In addition, the TGI in the assay with SF-539 CNS was above 100 µM; with SK-MEL-5 melanoma, above 100 µM; with SR leukemia it was above 100 µM; in the assay on SW-620 colon it was above 100 µM; in the assay with TK-10 renal it was 57.8 µM; in the assay with UACC-257 melanoma it was above 100 µM. This molecule also returned a TGI in the assay on UACC-62 melanoma above 100 µM.
On to `COc1ccc(N2C(=O)CSC2c2cc3cc(Br)ccc3nc2Cl)cc1` (centres undefined), for which the TGI in the assay on 786-0 renal, in the assay on ACHN renal, in the assay on BT-549 breast, in the assay with EKVX NSCLC, in the assay on HCT-116 colon and in the assay with HOP-62 NSCLC was above 50 µM in each case. In addition, the TGI with HS 578T breast, in the assay on K-562 leukemia, in the assay on MALME-3M melanoma, in the assay on MDA-MB-231 breast, in the assay on NCI/ADR-RES ovarian and in the assay with PC-3 prostate was above 50 µM each time. Moreover, the TGI in the assay with SF-539 CNS, with SK-MEL-5 melanoma, in the assay with SR leukemia, in the assay with SW-620 colon, in the assay with TK-10 renal and in the assay with UACC-257 melanoma was above 50 µM throughout. The same molecule returned a TGI in the assay with UACC-62 melanoma above 50 µM.
Take `COC(=O)[C@@]12CC[C@]1(C(=O)OC)C1C(C)=CC(=O)O[C@@]12C` (some centres undefined): the TGI with 786-0 renal, in the assay on ACHN renal, with BT-549 breast, with EKVX NSCLC, in the assay with HCT-116 colon and in the assay with HOP-62 NSCLC was above 100 µM in each case. The TGI with HS 578T breast, in the assay on K-562 leukemia, in the assay with MALME-3M melanoma, in the assay with MDA-MB-231 breast, with NCI/ADR-RES ovarian and in the assay on PC-3 prostate was above 100 µM each time. The TGI in the assay with SF-539 CNS, with SK-MEL-5 melanoma, in the assay on SR leukemia, with SW-620 colon, with TK-10 renal and in the assay with UACC-257 melanoma was above 100 µM in each case. The molecule further registered a TGI in the assay with UACC-62 melanoma above 100 µM.
`Oc1ccc2ccccc2c1-c1c(Nc2ccccc2)ccc2ccccc12`: the TGI in the assay on 786-0 renal turned out to be 34.2 µM; in the assay with ACHN renal, 38.8 µM; in the assay with BT-549 breast, 30.1 µM; in the assay with EKVX NSCLC, 40 µM; in the assay with HCT-116 colon, 33.5 µM; with HOP-62 NSCLC it was 30.1 µM. For the same molecule, the TGI in the assay on HS 578T breast was 41.1 µM; in the assay on K-562 leukemia, 41 µM; in the assay on MALME-3M melanoma it was 25 µM; in the assay on MDA-MB-231 breast, 28.1 µM; in the assay with NCI/ADR-RES ovarian, above 51.3 µM; in the assay on PC-3 prostate, 36.8 µM. The TGI with SF-539 CNS was 29.7 µM; in the assay on SK-MEL-5 melanoma, 29 µM; in the assay on SR leukemia, 51.6 µM; in the assay on SW-620 colon, 26.8 µM; in the assay with TK-10 renal, 32.1 µM; in the assay with UACC-257 melanoma, 40.3 µM. Besides, the TGI with UACC-62 melanoma worked out at 33.6 µM.

(Values after PubChem BioAssay (NCI).)
